{
  "source": "patent US8546338B2",
  "about": "“Self-assembling hydrogels based on dicephalic peptide amphiphiles” (Johnson & Johnson Consumer Companies, Inc., priority 2010, dated 2013)",
  "key": {"[1]": {"test": "Gelation experiments: inversion test for self-supporting hydrogels", "format": "physicochemical", "settings": "for Gelation (self-supporting gel on inversion), DMEM: DPA solution in water mixed 1:1 with DMEM; for Gelation (self-supporting gel on inversion), PBS / Gelation (self-supporting gel on inversion), Water: final concentrations 1, 2 and 4 weight percent tested; for Concentration at which gel forms, Water / Gelation (self-supporting gel on inversion), Water: in water; for Concentration at which gel forms, DMEM: mixed with DMEM", "method": "Inversion tests were performed to determine qualitatively under which conditions the various DPAs formed self-supporting hydrogels. The various types of DPAs were tested by dissolving them in ultrapure water (>18 MΩ resistivity) at double the desired final concentration followed by mixing in a 1:1 ratio with different liquid mediums. Gelation was deemed to have occurred if the gel supported its own weight upon inverting the vial (FIG. 3A and FIG. 3B). Gelation was tested at final concentrations of 1, 2 and 4 weight percent. We tested phosphate buffered saline (PBS), and Dulbecco's modified eagle media (DMEM) as liquid medium. Typical scale is 100 μl each of DPA solution in water and mixing medium but other scales have been tested. Finally, if no spontaneous gelation occurs, 10 μl of 100 mg/cc calcium chloride solution was added to induce gelation."}, "Sprague-Dawley rats": {"system": "Sprague-Dawley rats", "test": "Biocompatibility study, gel injected into intra-gluteal muscle pocket", "format": "in vivo", "settings": "rat, in vivo", "method": "A biocompatibility study was performed on Gly-Val-Ala-Val-Ala-Val-Ala-Glu-Gly-Glu (SEQ ID NO: 4), Gly-Phe-Gly-Phe-Gly-Phe-Gly-Glu-Gly-Glu (SEQ ID NO: 5) and Gly-Phe-Gly-Phe-Gly-Phe-Gly-Gln-Gln-Ser (SEQ ID NO: 8) DPAs. Lyophilized DPA powders were e-beam sterilized in 1.5 cc polypropylene cryovials at 15 KGy. Gels were pre-formed in 1 cc syringes by mixing a 4 wt % DPA solution in water for injection in a 1:1 ratio with DMEM followed by immediate aspiration into the syringe. In the case of the formulations with the Glu-Gly-Glu (SEQ ID NO: 27) sequence in the solubility enhancing region, 10 μl of a sterile 100 mg/cc calcium chloride solution was mixed in before aspiration into the syringe. An intra-gluteal muscle pocket was created in Sprague-Dawley rats after which 100 μl of gel was injected using a catheter fitted to the syringe. Subsequently, the pocket was closed with polyglactin 910 sutures sold under the tradename VICRYL (Ethicon, Somerville, N.J.). Tissue was harvested at 3, 7 and 28 days after implantation."}, "[2]": {"test": "Oscillating rheology, strain sweep", "format": "physicochemical", "settings": "2 wt % gels in DMEM, formed for 30 minutes", "method": "Oscillating rheology by the parallel plates method (radius=25 mm) was performed on 400 μl gels to assess the mechanical strengths of gels. Time sweeps were performed to evaluate kinetics of formation at a constant strain rate of 1% and frequency of 1 rad/s. Strain sweeps were performed ranging from 1-100% strain in increments of 2% at a constant frequency of 1 rad/s. Cross-over of G′ and G″ was used to determine the gel point and point of breakdown. Time sweeps were initiated immediately after mixing the solutions that lead to DPA hydrogel formation. In the strain sweeps, the gels were allowed to form on the plate for 30 minutes before the measurement is initiated.\nStrains sweeps were performed on 2 wt % Gly-Phe-Gly-Phe-Gly-Phe-Gly-Gln-Gln-Ser (SEQ ID NO: 8), Gly-Phe-Gly-Phe-Gly-Phe-Gly-Gln-Gly-Ser (SEQ ID NO: 12) and Gly-Phe-Gly-Phe-Gly-Phe-Gly-Asn-Asn-Ser (SEQ ID NO: 11) gels in DMEM (FIG. 8). Gels were allowed to form for 30 minutes before the experiment was initiated."}, "[3]": {"system": "human umbilical cord cells (hUTCs)", "test": "Cell viability of encapsulated hUTCs in DPA gels (Live/Dead)", "format": "cell-based", "settings": "2 wt % gel, 100,000 cells, after 1, 2 and 3 weeks", "method": "The viability and proliferation of cells in the gels was evaluated by encapsulating human umbilical cord cells (hUTCs) in the gels. hUTCs were isolated as described in U.S. Pat. No. 7,510,873. Cells were thawed from storage and cultured for four days in Hayflick media. After four days, the cells were trypsinized and counted by the Guava ViaCount methodology (Millipore, Billerica, Mass.). Cells were re-suspended in Hayflick media at a density of 1,000,000 cells/ml. Encapsulation of the cells in the gels was achieved by adding 100 μl cell suspension to 100 μl of a 4 wt % DPA solution in ultrapure in a 24 well plate, resulting in a final DPA concentration of 2%. The gels were incubated for 1 h at 37° C., 5% CO2 after which 1000 μl media was added on top of the gel. Cells were incubated at 37° C., 5% CO2. Every 3-4 days of culture, 500 μl media was replaced.\nAfter mixing of the cell suspension and 4% DPA solution by pipetting up and down, the protocol described above was modified by adding 10 μl 100 mg/ml calcium chloride solution upon which gelation occurred. Final concentrations are 2% in DPA and 100,000 cells. Control gels without cells were prepared by using pure media and additional cell only and cells with calcium chloride controls were prepared as standard 2D culture. After 7 days of culture, the gels were assayed with Live/Dead assay for cell viability and Invitrogen CyQuant GR assay for cell proliferation (Invitrogen, Carlsbad, Calif.). The Live/Dead was performed as described in the provided protocol but at half the […] concentration to reduce non-specific fluorescence due to dye absorption. […] The cells in the gels contained a lot of viable cells (FIG. 410). No dead cells could be observed in the gels. Therefore, the viability of these cells in the gels is very high (>95%).\nIn a second experiment, 100,000 hUTC cells were encapsulated in 2 wt % Gly-Phe-Gly-Phe-Gly-Phe-Gly-Gln-Gln-Ser (SEQ ID NO: 8) DPA gels. The cells were cultured for 3 weeks and cells were assessed after 1, 2 and 3 weeks with Live/Dead."}, "[4]": {"settings": "listed as Gly-Phe-Gly-Phe-Gly-Phe-Gly-Gln-Gln-Ser(DPA)_ (SEQ ID NO: 8)"}},
  "note": "Several values for one entry are separate records, joined by “and”; a condition that tells them apart may be missing. Equal values may be shown once.",
  "data": [
    {"smiles": "CCCCCCCCCCCCCCCC(=O)NC(C(=O)NCC(=O)N[C@@H](Cc1ccccc1)C(=O)NCC(=O)N[C@@H](Cc1ccccc1)C(=O)NCC(=O)N[C@@H](Cc1ccccc1)C(=O)NCC(=O)N[C@@H](CCC(N)=O)C(=O)N[C@@H](CCC(N)=O)C(=O)N[C@@H](CO)C(=O)O)C(=O)NCC(=O)N[C@@H](Cc1ccccc1)C(=O)NCC(=O)N[C@@H](Cc1ccccc1)C(=O)NCC(=O)N[C@@H](Cc1ccccc1)C(=O)NCC(=O)N[C@@H](CCC(N)=O)C(=O)N[C@@H](CCC(N)=O)C(=O)N[C@@H](CO)C(=O)O", "note": "[Gly-Phe-Gly-Phe-Gly-Phe-Gly-Gln-Gln-Ser]", "values": [
      {"measurement": "Behaviour of gel after disruption by vortexing", "setting": "[1]; 4 wt % in water", "value": "reform when left alone"},
      {"measurement": "Time to self-supporting gel", "setting": "[1]; 4 wt % in water", "value": "approx. 5 minutes"},
      {"measurement": "Gelation (self-supporting gel on inversion), DMEM", "setting": "[1]; no calcium added", "value": "Yes and Yes,"},
      {"measurement": "Gelation (self-supporting gel on inversion), DMEM", "setting": "[1]; no calcium added, listed as Gly-Phe-Gly-Phe-Gly-Phe-Gly-Gln-Gln-Ser(DPA)_ (SEQ ID NO: 8)", "value": "Yes,"},
      {"measurement": "Concentration at which gel forms, PBS", "setting": "[1]", "value": "4 wt % and 4%"},
      {"measurement": "Gelation (self-supporting gel on inversion), PBS", "setting": "[1]", "value": "Yes and Yes,"},
      {"measurement": "Gelation (self-supporting gel on inversion), PBS", "setting": "[1]; [4]", "value": "Yes,"},
      {"measurement": "Concentration at which gel forms, PBS", "setting": "[1]; [4]", "value": 4, "unit": "%"},
      {"measurement": "Concentration at which gel forms, Water", "setting": "[1]", "value": "4 wt % and 4%"},
      {"measurement": "Gelation (self-supporting gel on inversion), Water", "setting": "[1]", "value": "Yes and Yes,"},
      {"measurement": "Gelation (self-supporting gel on inversion), Water", "setting": "[1]; [4]", "value": "Yes,"},
      {"measurement": "Concentration at which gel forms, Water", "setting": "[1]; [4]", "value": 4, "unit": "%"},
      {"measurement": "Concentration at which gel forms, DMEM", "setting": "[1]; no calcium added", "value": 2, "unit": "%"},
      {"measurement": "Concentration at which gel forms, DMEM", "setting": "[1]; no supplemental calcium", "value": 2, "unit": "wt %"},
      {"measurement": "Gross observations", "setting": "Sprague-Dawley rats", "value": "some fluid buildup at day 3"},
      {"measurement": "Strain at which gel re-crosses the transition point (breakdown)", "setting": "[2]", "value": 99, "unit": "% strain"},
      {"measurement": "Strain at which gel re-crosses the transition point (breakdown)", "setting": "[2]; listed as Gln-Gln-Ser (SEQ ID NO: 28)", "value": "~100", "unit": "% strain"},
      {"measurement": "Viability of hUTC cells, Live/Dead", "setting": "[3]", "value": "very limited numbers of dead cells were detected"}
    ]}
  ]
}
